Literature values as cited in US9006270B2, “Polymorphs of (S)-pyrrolidine-1,2-dicarboxylic acid 2-amide 1-({4-methyl-5-[2-(2,2,2-trifluoro-1,1-dimethyl-ethyl)-pyridin-4-yl]-thiazol-2-yl}-amide” (Novartis AG, priority 2011, dated 2015).

Tested on: phosphatidylinositol 3-kinase (PI3K)
Conditions: described in WO 2010/029082

Structure (SMILES): Cc1nc(NC(=O)N2CCC[C@H]2C(N)=O)sc1-c1ccnc(C(C)(C)C(F)(F)F)c1 [Compound I, (S)-pyrrolidine-1,2-dicarboxylic acid 2-amide 1-(4-methyl-5-[2-(2,2,2-trifluoro-1,1-dimethyl-ethyl)-pyridin-4-yl]-thiazol-2-yl)-amide]
- activity against the phosphatidylinositol 3-kinase (PI3K): demonstrated activity
